Molecular target: Procathepsin L (Homo sapiens) (UniProt P07711)
Experiment: CTSL inhibition IC50, probe compound – biochemical, dose response (AID 1633)
Details: purified cathepsin L, fluorogenic substrate, enzyme inhibition

Sequence of Procathepsin L (Homo sapiens) (P07711 114-288 limits assumed): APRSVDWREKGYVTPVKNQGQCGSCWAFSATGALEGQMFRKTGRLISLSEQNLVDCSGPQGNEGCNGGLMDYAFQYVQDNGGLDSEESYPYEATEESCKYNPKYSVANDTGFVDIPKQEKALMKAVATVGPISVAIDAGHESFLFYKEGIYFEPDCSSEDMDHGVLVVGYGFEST
Sequence of Procathepsin L (Homo sapiens) (P07711 292-333 limits assumed): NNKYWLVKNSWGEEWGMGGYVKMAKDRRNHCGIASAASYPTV

## CCc1ccccc1NC(=O)CSC(=O)NNC(=O)[C@H](Cc1c[nH]c2ccccc12)NC(=O)OC(C)(C)C
  IC50: 201 nM

Reference: PubChem BioAssay AID1633 (PCMD, 2009)
